Source: the supplement of paper PMC10331698
± gives the standard deviation of the averaged measurements.

Assays:
Experiment in all cases: level (log10 ratio to DMSO vehicle control); higher = higher biomarker level / cell amount than vehicle control
Conditions in all cases: in DMSO
[1] = compound: O=C(O)C(F)(F)C(F)(F)OC(F)(F)F [Perfluoro-3-methoxypropanoic acid]
Procedure: (§1)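 BioMAP Diversity Plus panel of 12 human primary cell co-culture systems (3C, 4H, LPS, SAg, BT, BF4T, BE3C, CASM3C, HDF3CGF, KF3CT, MyoF, Mphg). Compounds were added 1 h before stimulation and left for 24 h (MyoF 48 h; BT 72 h for soluble read-outs or 6 d for IgG). Biomarkers were read by ELISA, cytotoxicity by SRB, PBMC viability and proliferation by Alamar Blue. Each well value was divided by the mean of 8 DMSO control wells on the same plate and log10 transformed; duplicate blinded samples were tested at 4 concentrations.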

[2] = compound: COC(=O)CCC(F)(F)C(F)(F)C(F)(F)C(F)(F)F [Methyl 2H,2H,3H,3H-perfluoroheptanoate]
Procedure: as §1

[3] = compound: C=CC(F)(F)C(F)(F)C(F)(F)C(F)(F)C(F)(F)C(F)(F)C(F)(F)C(F)(F)C=C [1,8-Divinylperfluorooctane]
Procedure: as §1

[4] = compound: FC(F)(F)C(F)(F)C(F)(F)C(F)(F)C(F)(F)C(F)(F)C(F)(F)C(F)(F)CCS [2-(Perfluorooctyl)ethanthiol]
Procedure: as §1

[5] = compound: C=CC(=O)OCC(F)(F)C(F)(F)C(F)(F)C(F)(F)C(F)(F)C(F)(F)C(F)(F)F [1H,1H-Perfluorooctyl acrylate]
Procedure: as §1

[6] = compound: OCC(F)(F)OC(F)(F)C(F)(F)OC(F)(F)CO [1H,1H,8H,8H-Perfluoro-3,6-dioxaoctane-1,8-diol]
Procedure: as §1

[7] = compound: O=S(=O)(O)C(F)(F)C(F)(F)C(F)(F)C(F)(F)C(F)(F)C(F)(F)F [Perfluorohexanesulfonic acid]
Procedure: as §1

## BT:sIL-17A
[1]; 6700 nM
  level (log10): 0.035 ± 0.27
[1]; 20000 nM
  level (log10): -0.0495 ± 0.076
[1]; 60000 nM
  level (log10): 0.0575 ± 0.12
[2]; 6700 nM
  level (log10): -0.0765 ± 0.18
[2]; 20000 nM
  level (log10): 0.001 ± 0.11
[2]; 60000 nM
  level (log10): -0.0075 ± 0.064
[3]; 6700 nM
  level (log10): -0.0055 ± 0.026
[3]; 20000 nM
  level (log10): 0.0625 ± 0.079
[4]; 6700 nM
  level (log10): -0.0475 ± 0.022
[4]; 20000 nM
  level (log10): -0.05 ± 0.042
[5]; 6700 nM
  level (log10): -0.242 ± 0.26
[5]; 20000 nM
  level (log10): -0.141 ± 0.05
[5]; 60000 nM
  level (log10): -0.409 ± 0.18
[6]; 6700 nM
  level (log10): 0.144 ± 0.073
[6]; 20000 nM
  level (log10): -0.0645 ± 0.022
[6]; 60000 nM
  level (log10): -0.128 ± 0.16
[7]; 6700 nM
  level (log10): 0.135 ± 0.11
[7]; 20000 nM
  level (log10): -0.0225 ± 0.25
[7]; 60000 nM
  level (log10): -0.133

## LPS:CD142/Tissue Factor
[1]; 6700 nM
  level (log10): 0.0095 ± 0.013
[1]; 20000 nM
  level (log10): 0.032 ± 0.021
[1]; 60000 nM
  level (log10): 0.0125 ± 0.073
[2]; 6700 nM
  level (log10): 0.0015 ± 0.067
[2]; 20000 nM
  level (log10): 0.0175 ± 0.054
[2]; 60000 nM
  level (log10): -0.019 ± 0.0085
[3]; 6700 nM
  level (log10): -0.035 ± 0.035
[3]; 20000 nM
  level (log10): -0.043 ± 0.057
[4]; 6700 nM
  level (log10): 0.0455 ± 0.081
[4]; 20000 nM
  level (log10): 0.097 ± 0.065
[5]; 6700 nM
  level (log10): 0.0425 ± 0.018
[5]; 20000 nM
  level (log10): 0.051 ± 0.014
[5]; 60000 nM
  level (log10): 0.0525 ± 0.016
[6]; 6700 nM
  level (log10): -0.006 ± 0.014
[6]; 20000 nM
  level (log10): -0.0155 ± 0.021
[6]; 60000 nM
  level (log10): -0.0135 ± 0.0035
[7]; 6700 nM
  level (log10): 0.0055 ± 0.023
[7]; 20000 nM
  level (log10): 0.001 ± 0.0028
[7]; 60000 nM
  level (log10): 0 ± 0.028

## 3C:CD87/uPAR
[1]; 6700 nM
  level (log10): -0.016 ± 0.05
[1]; 20000 nM
  level (log10): -0.021 ± 0.013
[1]; 60000 nM
  level (log10): 0.021 ± 0.021
[2]; 6700 nM
  level (log10): -0.028 ± 0.047
[2]; 20000 nM
  level (log10): -0.022 ± 0.072
[2]; 60000 nM
  level (log10): 0.0015 ± 0.077
[3]; 6700 nM
  level (log10): -0.0065 ± 0.022
[3]; 20000 nM
  level (log10): 0.0105 ± 0.025
[4]; 6700 nM
  level (log10): -0.0175 ± 0.0021
[4]; 20000 nM
  level (log10): -0.0215 ± 0.0035
[5]; 6700 nM
  level (log10): -0.0055 ± 0.012
[5]; 20000 nM
  level (log10): -0.0075 ± 0.0064
[5]; 60000 nM
  level (log10): 0.004
[6]; 6700 nM
  level (log10): -0.0025 ± 0.015
[6]; 20000 nM
  level (log10): 0.019 ± 0.018
[6]; 60000 nM
  level (log10): 0.0015 ± 0.0078
[7]; 6700 nM
  level (log10): -0.005 ± 0.027
[7]; 20000 nM
  level (log10): 0.0045 ± 0.011
[7]; 60000 nM
  level (log10): -0.0285 ± 0.013

## SAg:CXCL9/MIG
[1]; 6700 nM
  level (log10): 0.001 ± 0.0057
[1]; 20000 nM
  level (log10): 0.006 ± 0.0042
[1]; 60000 nM
  level (log10): -0.002 ± 0.0099
[2]; 6700 nM
  level (log10): -0.0195 ± 0.012
[2]; 20000 nM
  level (log10): -0.0095 ± 0.0021
[2]; 60000 nM
  level (log10): -0.0065 ± 0.018
[3]; 6700 nM
  level (log10): -0.0115 ± 0.0092
[3]; 20000 nM
  level (log10): 0.0055 ± 0.018
[4]; 6700 nM
  level (log10): 0.0015 ± 0.016
[4]; 20000 nM
  level (log10): 0.01 ± 0.0042
[5]; 6700 nM
  level (log10): 0.003 ± 0.0099
[5]; 20000 nM
  level (log10): -0.009 ± 0.0014
[5]; 60000 nM
  level (log10): 0.0015 ± 0.012
[6]; 6700 nM
  level (log10): 0.0075 ± 0.0021
[6]; 20000 nM
  level (log10): 0 ± 0.0014
[6]; 60000 nM
  level (log10): 0.0065 ± 0.0092
[7]; 6700 nM
  level (log10): 0.004
[7]; 20000 nM
  level (log10): -0.005 ± 0.0057
[7]; 60000 nM
  level (log10): 0.0035 ± 0.0078
